Reference: patent publication US10899759B2, “Positive allosteric modulators of the muscarinic acetylcholine receptor M1” (Vanderbilt University, priority 2016, dated 2021)

Target: T1, human mAChR M1 (Homo sapiens, UniProt P11229)
T1 construct: host or cells: CHO-K1
T1 sequence (P11229 1-460): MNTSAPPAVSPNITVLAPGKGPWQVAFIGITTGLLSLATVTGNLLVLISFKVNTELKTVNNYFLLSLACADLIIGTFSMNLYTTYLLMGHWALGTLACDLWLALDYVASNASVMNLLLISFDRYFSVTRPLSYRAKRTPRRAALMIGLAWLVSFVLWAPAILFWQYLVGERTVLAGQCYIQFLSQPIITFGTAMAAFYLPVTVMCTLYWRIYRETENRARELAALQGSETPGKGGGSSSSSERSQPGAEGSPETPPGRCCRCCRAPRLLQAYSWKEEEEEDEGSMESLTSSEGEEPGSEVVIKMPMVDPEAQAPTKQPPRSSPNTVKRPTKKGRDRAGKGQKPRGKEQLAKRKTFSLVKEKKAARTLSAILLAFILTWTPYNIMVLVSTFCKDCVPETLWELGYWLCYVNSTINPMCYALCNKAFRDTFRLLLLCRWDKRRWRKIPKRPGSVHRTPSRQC
Assay: mAChR M1 cell-based functional assay (calcium mobilization, Fluo-4, FDSS)
Conditions: CHO-K1 cells stably expressing hM1; for Emax: EC20 acetylcholine response, read-out: Human M1 Emax; for EC50: positive allosteric modulator activity as increase in the EC20 acetylcholine response
Protocol: Chinese hamster ovary (CHO-K1) cells stably expressing rat (r)M1 were purchased from the American Type Culture Collection and cultured according to their indicated protocol. […] To make stable rM2, hM2, rM3, hM4, and rM4 cell lines for use in calcium mobilization assays, these cells also were stably transfected with a chimeric G-protein (Gqi5) (provided by B. R. Conklin, University of California, San Francisco) using Lipofectamine 2000. rM1, hM1, rM3, hM3, rM5, and hM5 cells were grown in Ham's F-12 medium containing 10% heat-inactivated fetal bovine serum (FBS), 20 mM HEPES, and 50 μg/mL G418 sulfate. rM2-Gqi5, hM2-Gqi5, and hM4-Gqi5 cells were grown in the same medium also containing 500 μg/mL Hygromycin B. Stable rM4-Gqi5 cells were grown in DMEM containing 10% heat-inactivated FBS, 20 mM HEPES, 400 μg/mL G418 sulfate, and 500 μg/mL Hygromycin B.
For high throughput measurement of agonist-evoked increases in intracellular calcium, CHO-K1 cells stably expressing muscarinic receptors were plated in growth medium lacking G418 and hygromycin at 15,000 cells/20 μL/well in Greiner 384-well black-walled, tissue culture (TC)-treated, clear-bottom plates (VWR). Cells were incubated overnight at 37° C. and 5% CO2. […] Compound master plates were formatted in an 11 point CRC format (1:3 dilutions) in 100% DMSO with a starting concentration of 10 mM using the BRAVO liquid handler (Agilent). Test compound CRCs were then transferred to daughter plates (240 nL) using the Echo acoustic plate reformatter (Labcyte, Sunnyvale, Calif.) and then diluted into assay buffer (40 μL) to a 2× stock using a Thermo Fisher Combi (Thermo Fisher Scientific, Waltham, Mass.).
Calcium flux was measured using the Functional Drug Screening System (FDSS) 6000 (Hamamatsu Corporation, Tokyo, Japan) as an increase in the fluorescent static ratio. Compounds were applied to cells (20 μL, 2×) using the automated system of the FDSS 6000 at 4 s into the 300 s protocol and the data were collected at 1 Hz. […] Agonist activity was analyzed as a concentration-dependent increase in calcium mobilization upon compound addition. Positive allosteric modulator activity was analyzed as a concentration-dependent increase in the EC20 acetylcholine response. Antagonist activity was analyzed as a concentration-dependent decrease in the EC80 acetylcholine response. Concentration-response curves were generated using a four-parameter logistical equation in XLfit curve fitting software (IDBS, Bridgewater, N.J.) for Excel (Microsoft, Redmond, Wash.) or Prism (GraphPad Software, Inc., San Diego, Calif.).
The compound numbers correspond to the compound numbers used in Table 1.

| Emax [%] | EC50 [nM] | SMILES |
| --- | --- | --- |
| 63.9 | 470 | Cc1nc(-c2ccc(Cc3cc(C(=O)N[C@H]4CCCC[C@@H]4O)nc4sccc34)cc2)co1 [Compound 129, N-[(1S,2S)-2-hydroxycyclohexyl]-4-[[4-(2-methyloxazol-4-yl)phenyl]methyl]thieno[2,3-b]pyridine-6-carboxamide] |
| 33.3 | – | Cc1nc(-c2ccc(Cc3cc(C(=O)NC4CCOC(C)(C)C4)nc4sccc34)cc2)co1 (stereo not drawn) [Compound 131, N-(2,2-dimethyltetrahydropyran-4-yl)-4-[[4-(2-methyloxazol-4-yl)phenyl]methyl]thieno[2,3-b]pyridine-6-carboxamide] |
| 76.7 | 670 | Cn1ccc2c(Cc3ccc(-c4cscn4)cc3)cc(C(=O)NC3CCOC(C)(C)C3)nc21 (stereo not drawn) [Compound 25, N-(2,2-dimethyltetrahydropyran-4-yl)-1-methyl-4-[(4-thiazol-4-ylphenyl)methyl]pyrrolo[2,3-b]pyridine-6-carboxamide] |
| 56.8 | 150 | Cn1ccc(-c2ccc(Cc3cc(C(=O)NC4CC5(COC5)C4)nc4sccc34)cn2)n1 [Compound 109, 4-[[6-(1-methylpyrazol-3-yl)-3-pyridyl]methyl]-N-(2-oxaspiro[3.3]heptan-6-yl)thieno[2,3-b]pyridine-6-carboxamide] |
| 41.2 | 40 | Cn1ccc(-c2ccc(Cc3cc(C(=O)N[C@H]4CCOC[C@@H]4O)nc4sccc34)cc2)n1 [Compound 89, N-[(3R,4S)-3-hydroxytetrahydropyran-4-yl]-4-[[4-(1-methylpyrazol-3-yl)phenyl]methyl]thieno[2,3-b]pyridine-6-carboxamide] |
| 38.6 | 10 | Cn1cc(-c2ccc(Cc3cc(C(=O)NC4CCOCC4)nc4sccc34)cn2)cn1 [Compound 114, 4-[[6-(1-methylpyrazol-4-yl)-3-pyridyl]methyl]-N-tetrahydropyran-4-yl-thieno[2,3-b]pyridine-6-carboxamide] |
| 81.2 | 750 | Cn1ccc(-c2ccc(Cc3cc(C(=O)NC4CCOCC4)nc4c3ccn4C)cc2)n1 [Compound 39, 1-methy1-4-[[4-(1-methylpyrazol-3-yl)phenyl]methyl]-N-tetrahydropyran-4-yl-pyrrolo[2,3-b]pyridine-6-carboxamide] |
| 73.9 | 30 | Cn1cc(-c2ccc(Cc3cc(C(=O)N[C@H]4CCCC[C@@H]4O)nc4c3ccn4C)cn2)cn1 [Compound 46, N-[(1S,2S)-2-hydroxycyclohexyl]-1-methyl-4-[[6-(1-methylpyrazol-4-yl)-3-pyridyl]methyl]pyrrolo[2,3-b]pyridine-6-carboxamide] |
| 80.1 | 100 | Cc1nc(-c2ccc(Cc3cc(C(=O)N[C@H]4CCCC[C@@H]4O)nc4c3ccn4C)cc2)co1 [Compound 52, N-[(1S,2S)-2-hydroxycyclohexyl]-1-methyl-4-[[4-(2-methyloxazol-4-yl)phenyl]methyl]pyrrolo[2,3-b]pyridine-6-carboxamide] |
| 59.5 | 740 | CC1COCCC1NC(=O)c1cc(Cc2ccc(-c3ccn(C)n3)cc2)c2ccsc2n1 (stereo not drawn) [Compound 93, 4-[[4-(1-methylpyrazol-3-yl)phenyl]methyl]-N-(3-methyltetrahydropyran-4-yl)thieno[2,3-b]pyridine-6-carboxamide] |
| 60.5 | 70 | Cn1ccc(-c2ccc(Cc3cc(C(=O)NC4CCOC(C)(C)C4)nc4sccc34)cn2)n1 (stereo not drawn) [Compound 103, N-(2,2-dimethyltetrahydropyran-4-yl)-4-[[6-(1-methylpyrazol-3-yl)-3-pyridyl]methyl]thieno[2,3-b]pyridine-6-carboxamide] |
| 82.4 | 940 | CC1CC(NC(=O)c2cc(Cc3ccc(-c4ccn(C)n4)nc3)c3ccn(C)c3n2)CC(C)O1 (stereo not drawn) [Compound 148, N-(2,6-dimethyltetrahydropyran-4-yl)-1-methyl-4-[[6-(1-methylpyrazol-3-yl)-3-pyridyl]methyl]pyrrolo[2,3-b]pyridine-6-carboxamide] |
| 59.5 | 3150 | Cc1nc(-c2ccc(Cc3cc(C(=O)NCC4CCOC4)nc4sccc34)cc2)co1 (stereo not drawn) [Compound 138, 4-[[4-(2-methyloxazol-4-yl)phenyl]methyl]-N-(tetrahydrofuran-3-ylmethyl)thieno[2,3-b]pyridine-6-carboxamide] |
| 53.5 | 40 | Cn1cc(-c2ccc(Cc3cc(C(=O)NC4COC4)nc4sccc34)cn2)cn1 [Compound 124, 4-[[6-(1-methylpyrazol-4-yl)-3-pyridyl]methyl]-N-(oxetan-3-yl)thieno[2,3-b]pyridine-6-carboxamide] |
| 54.8 | 2190 | Cn1ccc2c(Cc3ccc(-c4cscn4)cc3)cc(C(=O)N[C@@H]3CCOC3)nc21 [Compound 34, 1-methyl-N-[(3R)-tetrahydrofuran-3-yl]-4-[(4-thiazol-4-ylphenyl)methyl]pyrrolo[2,3-b]pyridine-6-carboxamide] |
| 69.1 | 1290 | CC1(C)COCCC1NC(=O)c1cc(Cc2ccc(-n3cccn3)cc2)c2ccsc2n1 (stereo not drawn) [Compound 74, N-(3,3-dimethyltetrahydropyran-4-yl)-4-[(4-pyrazol-1-ylphenyl)methyl]thieno[2,3-b]pyridine-6-carboxamide] |
| 60.5 | 390 | Cc1nc(-c2ccc(Cc3cc(C(=O)NC4CC5(COC5)C4)nc4sccc34)cc2)co1 [Compound 139, 4-[[4-(2-methyloxazol-4-yl)phenyl]methyl]-N-(2-oxaspiro[3.3]heptan-6-yl)thieno[2,3-b]pyridine-6-carboxamide] |
| 52.6 | 410 | Cn1ccc2c(Cc3ccc(-c4cscn4)cc3)cc(C(=O)NCC3CCOCC3)nc21 [Compound 26, 1-methyl-N-(tetrahydropyran-4-ylmethyl)-4-[(4-thiazol-4-ylphenyl)methyl]pyrrolo[2,3-b]pyridine-6-carboxamide] |
| 37.9 | 20 | Cn1ccc(-c2ccc(Cc3cc(C(=O)NC4CCOCC4)nc4sccc34)cn2)n1 [Compound 102, 4-[[6-(1-methylpyrazol-3-yl)-3-pyridyl]methyl]-N-tetrahydropyran-4-yl-thieno[2,3-b]pyridine-6-carboxamide] |
| 60.7 | 490 | CC1COCCC1NC(=O)c1cc(Cc2ccc(-n3cccn3)cc2)c2ccsc2n1 (stereo not drawn) [Compound 75] |
| 72.1 | 360 | Cn1ccc(-c2ccc(Cc3cc(C(=O)NC[C@@H]4CCCO4)nc4c3ccn4C)cn2)n1 [Compound 158, 1-methyl-4-[[6-(1-methylpyrazol-3-yl)-3-pyridyl]methyl]-N-[[(2S)-tetrahydrofuran-2-yl]methyl]pyrrolo[2,3-b]pyridine-6-carboxamide] |
| 67.2 | 2660 | Cn1ccc(-c2ccc(Cc3cc(C(=O)N[C@H]4CCCC[C@@H]4O)nc4sccc34)cn2)n1 [Compound 101, N-[(1S,2S)-2-hydroxycyclohexyl]-4-[[6-(1-methylpyrazol-3-yl)-3-pyridyl]methyl]thieno[2,3-b]pyridine-6-carboxamide] |
| 84.1 | 1050 | Cc1nc(-c2ccc(Cc3cc(C(=O)NCC4CCOCC4)nc4c3ccn4C)cc2)co1 [Compound 58, 1-methyl-4-[[4-(2-methyloxazol-4-yl)phenyl]methyl]-N-(tetrahydropyran-4-ylmethyl)pyrrolo[2,3-b]pyridine-6-carboxamide] |
